The values that follow are results of earlier work, collected in patent US20260125514A1, “CROSSLINKED POLYMERS AND THEIR USES” (UNIVERSITÉ CÔTE D'AZUR, priority 2022, published 2026).

Each structure is given as a SMILES string.

The conditions of this data set: free, non crosslinked caulerpenyne; Parent-Massin (1996).

With `CC(=O)O/C=C(/C=C/OC(C)=O)[C@H](C/C=C(\C)C#CC=C(C)C)OC(C)=O` [caulerpenyne, Caulerpenyne], the toxicity entry is “toxicity”.
